From ChEMBL document CHEMBL1150941, “The characterization and structure-activity evaluation of toxic norditerpenoid alkaloids from two Delphinium species” (J Nat Prod, 1998) come the findings set out here.

The series can be described thus: Toxicity in iv dosed white Swiss-Webster mouse. The class given is organism-based. The settings on record: in vivo.

The LD50 is the dose expected to kill half of the subjects tested. Take `CCN1C[C@]2(COC(=O)c3ccccc3N3C(=O)C[C@H](C)C3=O)CC[C@H](O)[C@@]34[C@@H]5C[C@H]6[C@H](OC)[C@@H]5[C@](O)(C[C@@H]6OC)[C@](O)([C@@H](OC)[C@H]23)[C@@H]14` [GRANDIFLORINE]: the 50% lethal dose (LD50) is 8.3 mg/kg.
